The nature of the data set: Evaluation of moisture-heat resistance: turbidity (crystal precipitation) in the transparent resin film. The settings on record: amount of 3.5 parts by mass or more. The format is physicochemical. Here is the method: (Evaluation of Moisture-Heat Resistance)
The transparent resin films A-1 to A-14 and B-1 to B-3 were aged for 20 days under moisture heat conditions of a temperature of 85° C. and a humidity of 85%, and the presence or absence of turbidity (crystal precipitation) in the transparent resin film was evaluated according to the following standards.
(Evaluation Standards for Turbidity)
A: Almost no change in appearance such as turbidity due to crystal precipitation is observed.

SMILES strings stand for the structures.

`CCCCC(CC)COC(=O)/C(C#N)=C\C=C1/CCCN1C` (centres unmarked) [UV-5]: the crystal precipitation result is recorded as “caused crystal precipitation”.
As to `CCCCCCCCCOC(=O)/C(C#N)=C/C=C/N(CC)CC` [UV-4], the crystal precipitation result is recorded as “caused crystal precipitation”.

These data come from US20220119688A1, “LAMINATE, LIQUID CRYSTAL DISPLAY DEVICE, AND ORGANIC ELECTROLUMINESCENT DISPLAY DEVICE” (FUJIFILM Corporation, priority 2019, published 2022).
